This is an account of results in patent US20090137580A1, “Fused Heterocyclic Derivatives and Use Thereof” (Takeda Pharmaceutical Company Limited, priority 2005, published 2009).

The structures appear in SMILES notation.

Assay [1] deals with T1, PDGFRbeta Receptor Kinase (PDGFRbeta) (Homo sapiens, UniProt P09619).
T1 construct: PDGFRbeta intracellular domain protein (UPSTATE); purchased UPSTATE
As to the kind of experiment: Determination of PDGFRbeta receptor kinase (PDGFRbeta) inhibitory activity (alpha screen). Particulars: PDGFRbeta intracellular domain protein, 25 μM ATP buffer; read-out: IC50 value (PDGFRbeta kinase inhibition). Type of assay: biochemical. As for the experimental part: The test compound dissolved in dimethyl sulfoxide (DMSO) was diluted with a buffer (50 mM Tris-HCl, pH 7.5, 5 mM MgCl2, 5 mM MnCl2, 2 mM dithiothreitol, 0.01% Tween-20). A buffer (10 μl) containing 125 ng/ml PDGFRbeta intracellular domain protein (UPSTATE) and 250 ng/ml biotin-labeled polypeptide biotinyl-poly-Glu:Tyr (4:1) (CIS Bio International) was added to the compound solution (5 μl). At 5 min after mixing a kinase enzyme, the compound and a biotin-labeled polypeptide, a buffer (10 μl) containing 25 μM ATP was added to the obtained mixture, the mixture was allowed to react at 25° C. for 30 min. Then, 25 μl of a stop solution (100 mM EDTA·2 sodium salt, 62.5 mM HEPES buffer (pH 7.4), 250 mM NaCl, 0.1% bovine serum albumin, 10 μg/ml Streptavidin Donor beads: PerkinElmer for alpha screen assay, 10 μg/ml Anti-phosphotyrosine (P-Tyr-66) Acceptor beads: PerkinElmer for alpha screen assay) was added to quench the reaction. The reaction solution was stood at 25° C. for 16 hr, and the count was measured using a plate reader·Fusion™ (manufactured by PerkinElmer). The kinase inhibitory rate (%) of the test compound was calculated by the following formula.
Inhibitory rate(%)=(1−(count of test compound−blank)÷(control−blank))×100
wherein the count of the solution reacted without addition of the compound is “control” and the count of the solution without addition of the compound and ATP is “blank”.

For assay [2], the target named is T2, VEGF Receptor 2 Kinase (VEGFR2) (Homo sapiens, UniProt P35968).
T2 construct: made in house; host or cells: SF-21 insect cells, recombinant baculovirus BAC-VEGFR2 (pFASTBAC1)
The experiment in a line: Determination of VEGF receptor 2 kinase (VEGFR2) inhibitory activity (alpha screen). Type of assay: biochemical. Particulars: VEGFR2 intracellular domain protein, 25 μM ATP buffer, read-out: inhibitory rate (kinase inhibitory rate of VEGFR2). As for the experimental part: For cloning of human VEGF receptor 2 (hereinafter to be abbreviated as VEGFR2) gene, PCR was performed using cDNA Libraries Human Placenta (Clontech) as a template. The primer used for PCR was prepared by, based on the information of the base sequence (Genbank Accession AF035121) of VEGFR2 gene, adding a base sequence encoding the flag peptide and a restriction enzyme recognition sequence to the base sequence (2671-4374 of Genbank Accession AF035121) encoding the VEGFR2 intracellular domain, so that a flag tag would be added to the N terminal of the protein. The primer base sequence is shown in the following.
PCR reaction was carried out using a KOD-plus kit (TOYOBO). The obtained PCR product was electrophoresed on an agarose gel (1%), and a DNA fragment amplified by PCR was recovered from the gel and digested with restriction enzymes Sal I and Sph I. The DNA after the restriction enzyme treatment was electrophoresed on an agarose gel (1%), and the obtained DNA fragment was recovered and ligated to the plasmid pFASTBAC1 (Invitrogen) digested with restriction enzymes Sal I and Sph I to give an expression plasmid pFB-VEGFR2. The base sequence of the inserted fragment was confirmed to have matched with the base sequence (2671-4374 of Genbank Accession AF035121) of the VEGFR2 intracellular domain. Furthermore, virus stock BAC-VEGFR2 of the recombinant Baculovirus was prepared using BAC-TO-BAC Baculovirus Expression System (Invitrogen).
SF-21 cells were inoculated into 1 L of Sf-900IISFM medium (Invitrogen) containing 10% fetal calf serum (trace), 50 mg/L Gentamicin (Invitrogen) and 0.1% Pluronic F-68 (Invitrogen) at 1×10^6 cells/ml, and shake culture was performed using a 2 L Erlenmeyer flask at 27° C., 100 rpm. After 24 hr of culture, recombinant Baculovirus BAC-VEGFR2 (13.4 mL) was added, and the culture was continued for 3 days. The culture medium was centrifuged at 2,000 rpm for 5 min to give virus-infected cells. The infected cells were washed with phosphate buffered saline (Invitrogen), centrifuged under the same conditions, and preserved at −80° C. The cryopreserved cells were thawed in ice, suspended in 30 mL of buffer A (Tris buffer, pH 7.4, containing 20% glycerol and 0.15M NaCl (50 mM)) supplemented with Complete Protease Inhibitor (Boehringer), and disrupted three times using a polytron homogenizer (Kinematica) at 20,000 rpm, 30 sec. The disrupt was clarified by centrifugation at 40,000 rpm, 30 min and filtered through a 0.45 μm filter. The filtrate was passed through a column packed with Anti-FLAG M2 Affinity Gel (Sigma Ltd., 4 mL) at a flow rate of about 0.5 mL/min. The column was washed with buffer A and eluted with buffer A containing 100 μg/mL FLAG peptide. The eluate was concentrated by Vivaspin 20 (Viva Science) having a fraction molecular weight of 30K. The concentrate was applied to NAP™ 25 column (Amersham Biosciences) equilibrated with buffer A for buffer exchange. The fractions containing the VEGFR2 intracellular domain protein were collected, glycerol was added to the final concentration of 50% and the fractions cryopreserved at ˜80° C.
The test compound dissolved in dimethyl sulfoxide (DMSO) was diluted with a buffer (50 mM Tris-HCl, pH 7.5, 5 mM MgCl2, 5 mM MnCl2, 2 mM dithiothreitol, 0.01% Tween-20). A buffer (10 μl) containing 50 ng/ml VEGFR2 intracellular domain protein and 250 ng/ml biotin-labeled polypeptide biotinyl-poly-Glu:Tyr (4:1) (CIS Bio International) was added to the compound solution (5 μl). A buffer (10 μl) containing 25 μM ATP was added to the obtained mixture, the mixture was allowed to react at 25° C. for 5 min. Then, 25 μl of a stop solution (100 mM EDTA·2 sodium salt, 62.5 mM HEPES buffer (pH 7.4), 250 mM NaCl, 0.1% bovine serum albumin, 10 μg/ml Streptavidin Donor beads: PerkinElmer for alpha screen assay, 10 μg/ml Anti-phosphotyrosine (P-Tyr-100) Acceptor beads: PerkinElmer for alpha screen assay) was added to quench the reaction. […]

T2 sequence (P35968 786-1356 limits assumed): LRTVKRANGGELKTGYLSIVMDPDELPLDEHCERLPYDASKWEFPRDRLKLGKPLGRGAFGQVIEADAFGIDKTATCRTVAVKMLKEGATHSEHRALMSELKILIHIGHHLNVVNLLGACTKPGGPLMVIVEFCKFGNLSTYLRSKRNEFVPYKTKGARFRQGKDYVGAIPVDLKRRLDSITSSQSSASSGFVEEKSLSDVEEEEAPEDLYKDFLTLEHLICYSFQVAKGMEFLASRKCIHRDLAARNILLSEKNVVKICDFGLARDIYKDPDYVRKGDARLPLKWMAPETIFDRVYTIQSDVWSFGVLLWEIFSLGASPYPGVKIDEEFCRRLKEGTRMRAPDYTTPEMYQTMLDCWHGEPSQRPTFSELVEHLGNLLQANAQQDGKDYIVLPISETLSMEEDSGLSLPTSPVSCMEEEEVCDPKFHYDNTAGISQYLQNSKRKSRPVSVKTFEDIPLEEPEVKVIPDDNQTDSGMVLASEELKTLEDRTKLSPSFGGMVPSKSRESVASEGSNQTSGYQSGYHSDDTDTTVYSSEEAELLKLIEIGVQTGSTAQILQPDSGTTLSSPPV
T1 sequence (P09619 554-1106 limits assumed): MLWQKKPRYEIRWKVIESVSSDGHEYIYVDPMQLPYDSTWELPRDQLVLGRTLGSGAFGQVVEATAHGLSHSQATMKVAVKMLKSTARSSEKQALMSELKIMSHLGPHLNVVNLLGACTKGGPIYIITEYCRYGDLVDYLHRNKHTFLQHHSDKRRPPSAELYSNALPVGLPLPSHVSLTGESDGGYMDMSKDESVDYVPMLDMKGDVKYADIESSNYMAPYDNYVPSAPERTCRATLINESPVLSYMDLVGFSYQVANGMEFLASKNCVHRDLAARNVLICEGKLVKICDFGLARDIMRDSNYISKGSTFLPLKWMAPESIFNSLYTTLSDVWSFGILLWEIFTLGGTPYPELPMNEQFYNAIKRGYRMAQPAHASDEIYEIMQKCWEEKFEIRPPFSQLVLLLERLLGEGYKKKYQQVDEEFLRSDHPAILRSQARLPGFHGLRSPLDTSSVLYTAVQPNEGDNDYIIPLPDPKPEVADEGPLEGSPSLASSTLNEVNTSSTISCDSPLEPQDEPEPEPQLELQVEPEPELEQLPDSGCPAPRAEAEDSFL

For `Cn1ccc2ncnc(Oc3ccc(NC(=O)Nc4cccc(C(F)(F)F)c4)c(Cl)c3)c21` [Example 15, N-{2-chloro-4-[(5-methyl-5H-pyrrolo[3,2-d]pyrimidin-4-yl)oxy]phenyl}-N′-[3-(trifluoromethyl)phenyl]urea], in assay [1], the IC50 is ≤ 500 nM. In addition, the inhibition at 1 µM in assay [2] is ≥ 90%.
Regarding `Cn1ccc2ncnc(Oc3ccc(NC(=O)Nc4cccc(OC(F)(F)F)c4)c(Cl)c3)c21` [Example 20, N-{2-chloro-4-[(5-methyl-5H-pyrrolo[3,2-d]pyrimidin-4-yl)oxy]phenyl}-N′-[3-(trifluoromethoxy)phenyl]urea], in assay [1], the IC50 is ≤ 500 nM. Further, the inhibition at 1 µM in assay [2] is ≥ 90%.
For the compound `Cc1cc(Oc2ncnc3ccn(C)c23)ccc1NC(=O)Nc1cccc(C(F)(F)F)c1` [Example 41, N-{2-methyl-4-[(5-methyl-5H-pyrrolo[3,2-d]pyrimidin-4-yl)oxy]phenyl}-N′-[3-(trifluoromethyl)phenyl]urea], the half-inhibitory concentration (IC50) in assay [1] was ≤ 500 nM. Further, the inhibition at 1 µM in assay [2] was ≥ 90%.
With `CCn1ccc2ncnc(Oc3ccc(NC(=O)Nc4cccc(C(F)(F)F)c4)c(Cl)c3)c21` [Example 47, N-{2-chloro-4-[(5-ethyl-5H-pyrrolo[3,2-d]pyrimidin-4-yl)oxy]phenyl}-N′-[3-(trifluoromethyl)phenyl]urea], the IC50 in assay [1] was ≤ 500 nM. For the same compound, the inhibition at 1 µM in assay [2] is ≥ 90%.
